The values below come from paper PMC4503722, “Novel Phenotypic Outcomes Identified for a Public Collection of Approved Drugs from a Publicly Accessible Panel of Assays” (PLoS ONE, 2015).

One assay concerns NCI-H716 cells. Nature of the assay: cells. The format is cell-based, Human. To be noted: for hNCI-H716 GLP1 Secretion IC50/EC50: assay number 12; for IC50/EC50, hNCI-H716 GLP1 Secretion (assay number 12): concentration response.
The subject of a further assay is STC-1 cell line. Format: cell-based, mouse. To be noted: for mSTC-1 GLP1 Secretion IC50/EC50: assay number 13; for IC50/EC50, mSTC-1 GLP1 Secretion (assay number 13): concentration response.
The next assay concerns SW480. Nature of the assay: cells. The format is cell-based. Particulars: Homo sapiens.
A further assay has as its target T1, hGSK3b (Homo sapiens, UniProt P49841).
T1 construct: purchased Cerep (LANCE kinase assay platform, contract assay)
Nature of the assay: Cerep LANCE kinase assay hGSK3b (S1 assay 34). The format is biochemical. To be noted: read-out: GSK3b.

Another assay addresses T2, hFLT3 (Homo sapiens, UniProt P36888).
T2 construct: purchased Cerep (LANCE kinase assay platform, contract assay)
In words: Cerep LANCE kinase assay hFLT3 (S1 assay 35). Particulars: read-out: FLT3. Format: biochemical.

In a further assay the target is T3, hp70S6K1 (RPS6KB1) (Homo sapiens, UniProt P23443).
T3 construct: purchased Cerep (LANCE kinase assay platform, contract assay)
T3 sequence (P23443 whole entry): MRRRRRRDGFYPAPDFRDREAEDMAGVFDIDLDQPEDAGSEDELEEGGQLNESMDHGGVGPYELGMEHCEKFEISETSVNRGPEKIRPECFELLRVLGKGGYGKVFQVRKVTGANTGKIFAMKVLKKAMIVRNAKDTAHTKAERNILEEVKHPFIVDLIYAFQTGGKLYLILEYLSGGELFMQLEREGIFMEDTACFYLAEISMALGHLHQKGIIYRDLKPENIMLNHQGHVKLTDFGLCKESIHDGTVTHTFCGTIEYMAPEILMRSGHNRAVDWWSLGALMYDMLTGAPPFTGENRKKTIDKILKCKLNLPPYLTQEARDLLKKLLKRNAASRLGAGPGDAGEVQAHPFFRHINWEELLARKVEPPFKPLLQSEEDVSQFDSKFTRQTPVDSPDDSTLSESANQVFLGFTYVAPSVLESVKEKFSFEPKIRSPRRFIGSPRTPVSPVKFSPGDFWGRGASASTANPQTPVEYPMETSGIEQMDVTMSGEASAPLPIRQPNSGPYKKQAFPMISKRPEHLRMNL
In words: Cerep LANCE kinase assay hp70S6K1 (S1 assay 31). Format: biochemical. Particulars: read-out: p70S6K1.

For another assay, the system named is HCT116. Nature of the assay: cells. Format: cell-based. Particulars: Homo sapiens.
Assay [1] concerns endothelial tube formation in co-cultures of ECFCs and ADSCs treated with VEGF. Nature of the assay: cells. To be noted: Homo sapiens. Format: cell-based, human.
A further assay concerns RKO. In words: cells. To be noted: Homo sapiens, RKO. Format: cell-based.
A further assay concerns INS-1E cells. In words: cells. The format is cell-based, rat. Particulars: Rattus norvegicus, INS-1E, read-out: Ins. sec. EC50.
The subject of another assay is HeLa cells. Nature of the assay: cells. To be noted: Homo sapiens, HeLa, read-out: CellCycle G2/M. The format is cell-based.
A further assay has as its system HT-29. Nature of the assay: cells. Format: cell-based. Particulars: Homo sapiens.
For the next assay, the system named is Colo320. In words: cells. Format: cell-based. Particulars: Homo sapiens.
A further assay deals with DLD-1. Nature of the assay: cells. Particulars: Homo sapiens. The format is cell-based.
A further assay concerns the target T4, hKDR (Homo sapiens, UniProt P35968).
T4 construct: purchased Cerep (LANCE kinase assay platform, contract assay)
In words: Cerep LANCE kinase assay hKDR (S1 assay 32). The format is biochemical. To be noted: read-out: KDR. A general note: TR-FRET usually uses a lanthanide donor and a delayed reading to cut background.

In assay [2] the test system is HCT116 cells treated with a GSK3β inhibitor. Nature of the assay: cells. Format: cell-based. Particulars: Homo sapiens.
The next assay relates to SNU-C1. Nature of the assay: cells. Format: cell-based. To be noted: Homo sapiens.
Assay [3] relates to nuclear β-catenin in C2C12 cells. Nature of the assay: cells. To be noted: Mus musculus. The format is cell-based.
In another assay the target is T5, hJAK2 (Homo sapiens, UniProt O60674).
T5 construct: purchased Cerep (LANCE kinase assay platform, contract assay)
T5 sequence (O60674 whole entry): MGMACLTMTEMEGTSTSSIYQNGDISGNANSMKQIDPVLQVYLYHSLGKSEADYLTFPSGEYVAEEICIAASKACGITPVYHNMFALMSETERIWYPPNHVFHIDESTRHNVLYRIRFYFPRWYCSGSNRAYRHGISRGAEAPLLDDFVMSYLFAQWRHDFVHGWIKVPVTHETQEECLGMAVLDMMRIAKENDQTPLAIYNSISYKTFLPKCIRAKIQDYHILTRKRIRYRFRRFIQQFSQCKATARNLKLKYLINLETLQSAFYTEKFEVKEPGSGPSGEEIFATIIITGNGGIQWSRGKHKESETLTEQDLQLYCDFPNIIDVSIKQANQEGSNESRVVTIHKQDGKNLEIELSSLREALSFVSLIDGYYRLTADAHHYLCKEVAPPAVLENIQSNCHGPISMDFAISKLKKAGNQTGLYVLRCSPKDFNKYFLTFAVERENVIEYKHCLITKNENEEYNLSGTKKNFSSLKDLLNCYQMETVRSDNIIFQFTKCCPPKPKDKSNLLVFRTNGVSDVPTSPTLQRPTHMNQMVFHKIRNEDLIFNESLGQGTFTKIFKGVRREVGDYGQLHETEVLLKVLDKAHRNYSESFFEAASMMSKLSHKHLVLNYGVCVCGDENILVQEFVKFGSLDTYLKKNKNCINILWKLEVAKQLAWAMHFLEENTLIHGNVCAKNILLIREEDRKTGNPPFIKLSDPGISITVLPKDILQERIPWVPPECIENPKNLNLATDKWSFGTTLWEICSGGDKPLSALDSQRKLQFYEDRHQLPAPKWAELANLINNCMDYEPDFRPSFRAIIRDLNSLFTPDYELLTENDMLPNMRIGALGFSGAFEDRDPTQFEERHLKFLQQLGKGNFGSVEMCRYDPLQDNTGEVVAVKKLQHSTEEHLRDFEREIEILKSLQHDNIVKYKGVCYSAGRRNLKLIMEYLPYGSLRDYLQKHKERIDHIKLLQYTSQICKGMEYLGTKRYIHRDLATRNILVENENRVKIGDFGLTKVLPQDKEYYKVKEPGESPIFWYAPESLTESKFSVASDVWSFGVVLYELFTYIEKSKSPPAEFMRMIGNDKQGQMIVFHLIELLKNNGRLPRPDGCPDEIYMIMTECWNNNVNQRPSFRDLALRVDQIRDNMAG
In words: Cerep LANCE kinase assay hJAK2 (S1 assay 33). Format: biochemical. To be noted: read-out: JAK2.

pEC50, pIC50: −log10 of the molar value. Like-named read-outs stand apart in the source and are kept apart here. Bounds are passed on as bounds.

T4 sequence (P35968 20-1356): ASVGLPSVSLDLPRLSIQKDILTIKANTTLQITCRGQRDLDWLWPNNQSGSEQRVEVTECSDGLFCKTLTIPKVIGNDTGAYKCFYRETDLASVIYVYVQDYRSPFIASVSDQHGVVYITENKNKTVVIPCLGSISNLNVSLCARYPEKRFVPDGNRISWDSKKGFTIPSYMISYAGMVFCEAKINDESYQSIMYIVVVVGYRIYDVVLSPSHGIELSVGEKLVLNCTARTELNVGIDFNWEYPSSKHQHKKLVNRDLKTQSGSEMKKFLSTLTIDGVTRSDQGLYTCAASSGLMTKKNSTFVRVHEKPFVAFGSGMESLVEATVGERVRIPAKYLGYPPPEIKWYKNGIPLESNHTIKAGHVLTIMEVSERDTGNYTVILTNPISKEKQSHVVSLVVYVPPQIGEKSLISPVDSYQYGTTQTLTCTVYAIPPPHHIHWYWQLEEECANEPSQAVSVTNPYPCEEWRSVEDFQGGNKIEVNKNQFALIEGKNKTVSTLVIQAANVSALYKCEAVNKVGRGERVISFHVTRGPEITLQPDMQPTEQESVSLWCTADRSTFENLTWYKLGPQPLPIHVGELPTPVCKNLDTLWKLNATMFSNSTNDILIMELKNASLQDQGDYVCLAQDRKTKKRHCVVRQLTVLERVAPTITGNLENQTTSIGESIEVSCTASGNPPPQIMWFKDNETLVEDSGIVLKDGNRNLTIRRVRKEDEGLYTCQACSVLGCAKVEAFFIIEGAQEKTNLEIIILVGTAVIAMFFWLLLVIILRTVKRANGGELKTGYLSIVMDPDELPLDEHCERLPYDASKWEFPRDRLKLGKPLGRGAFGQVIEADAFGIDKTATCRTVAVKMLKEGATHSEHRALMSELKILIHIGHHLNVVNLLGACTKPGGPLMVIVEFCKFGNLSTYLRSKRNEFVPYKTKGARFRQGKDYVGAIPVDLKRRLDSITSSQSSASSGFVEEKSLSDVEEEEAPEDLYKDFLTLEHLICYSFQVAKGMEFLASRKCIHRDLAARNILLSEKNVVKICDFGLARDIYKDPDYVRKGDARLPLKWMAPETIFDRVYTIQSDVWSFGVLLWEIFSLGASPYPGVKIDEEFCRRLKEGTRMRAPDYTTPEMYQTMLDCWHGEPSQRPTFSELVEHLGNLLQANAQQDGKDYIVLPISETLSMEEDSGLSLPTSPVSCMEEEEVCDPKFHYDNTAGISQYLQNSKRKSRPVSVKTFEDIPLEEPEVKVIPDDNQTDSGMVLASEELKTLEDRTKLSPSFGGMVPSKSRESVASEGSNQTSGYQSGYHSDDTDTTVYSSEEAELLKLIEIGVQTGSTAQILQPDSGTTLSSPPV
T1 sequence (P49841 whole entry): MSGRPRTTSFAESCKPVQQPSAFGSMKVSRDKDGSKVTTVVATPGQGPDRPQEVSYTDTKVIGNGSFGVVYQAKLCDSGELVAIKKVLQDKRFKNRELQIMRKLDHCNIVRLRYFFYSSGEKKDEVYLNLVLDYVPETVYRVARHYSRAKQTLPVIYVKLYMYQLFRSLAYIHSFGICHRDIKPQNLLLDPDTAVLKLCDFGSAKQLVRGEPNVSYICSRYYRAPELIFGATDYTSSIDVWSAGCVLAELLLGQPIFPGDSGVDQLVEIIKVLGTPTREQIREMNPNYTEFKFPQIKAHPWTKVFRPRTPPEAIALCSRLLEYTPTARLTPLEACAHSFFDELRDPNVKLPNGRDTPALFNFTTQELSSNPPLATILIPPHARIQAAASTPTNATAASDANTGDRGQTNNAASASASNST
T2 sequence (P36888 27-993): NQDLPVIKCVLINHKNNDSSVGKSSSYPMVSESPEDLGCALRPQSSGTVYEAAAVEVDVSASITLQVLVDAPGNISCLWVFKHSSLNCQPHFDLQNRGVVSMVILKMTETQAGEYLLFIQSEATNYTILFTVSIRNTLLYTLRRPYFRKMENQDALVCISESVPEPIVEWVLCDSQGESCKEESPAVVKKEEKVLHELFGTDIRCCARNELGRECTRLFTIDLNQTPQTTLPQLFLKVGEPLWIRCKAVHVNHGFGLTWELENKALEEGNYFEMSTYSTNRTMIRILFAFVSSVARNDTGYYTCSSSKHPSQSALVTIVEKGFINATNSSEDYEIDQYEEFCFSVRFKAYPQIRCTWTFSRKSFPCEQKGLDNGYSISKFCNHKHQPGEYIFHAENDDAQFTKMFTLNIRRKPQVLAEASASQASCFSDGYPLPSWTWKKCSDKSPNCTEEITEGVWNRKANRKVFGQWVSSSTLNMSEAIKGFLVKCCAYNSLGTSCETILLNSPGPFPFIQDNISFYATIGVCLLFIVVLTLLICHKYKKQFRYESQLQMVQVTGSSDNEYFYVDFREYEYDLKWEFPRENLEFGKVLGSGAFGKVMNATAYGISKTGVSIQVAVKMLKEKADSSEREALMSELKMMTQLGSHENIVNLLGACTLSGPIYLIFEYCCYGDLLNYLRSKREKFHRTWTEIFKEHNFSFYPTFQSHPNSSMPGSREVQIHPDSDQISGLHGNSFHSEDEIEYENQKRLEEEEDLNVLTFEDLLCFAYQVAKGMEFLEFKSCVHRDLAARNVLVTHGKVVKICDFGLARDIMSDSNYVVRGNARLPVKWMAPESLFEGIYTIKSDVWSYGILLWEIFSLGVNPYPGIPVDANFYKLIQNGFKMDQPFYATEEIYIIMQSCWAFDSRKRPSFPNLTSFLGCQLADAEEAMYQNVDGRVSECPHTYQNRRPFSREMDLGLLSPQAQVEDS

As to `Cc1c(C)n(CCN(C)C)c2ccc(C(=O)OCCN(C)C)cc12` [NCGC00164483-03], in the assay with NCI-H716 cells, the “hNCI-H716 GLP1 Secretion IC50/EC50” value was over 40 µM. Also, the “mSTC-1 GLP1 Secretion IC50/EC50” value with STC-1 cell line is on record as 1.1962 µM.
The matching figures for `CC(C)(O)c1ccccc1CC[C@@H](SCC1(CC(=O)[O-])CC1)c1cccc(/C=C/c2ccc3ccc(Cl)cc3n2)c1.[Na+]` [NCGC00164568-04]: 20.7101 µM and over 40 µM.
Take `CCOC(=O)[C@@H](N)CS.Cl` [NCGC00166061-02]: the “IC50/EC50, hNCI-H716 GLP1 Secretion (assay number 12)” value in the assay on NCI-H716 cells is reported as over 40 µM. Moreover, the “IC50/EC50, mSTC-1 GLP1 Secretion (assay number 13)” value in the assay with STC-1 cell line is 14.3442 µM.
`O=C1OC2(c3ccccc31)c1cc(I)c(O)c(I)c1Oc1c2cc(I)c(O)c1I` [NCGC00166249-03]: the “hNCI-H716 GLP1 Secretion IC50/EC50” value in the assay on NCI-H716 cells was over 40 µM. Further, the “mSTC-1 GLP1 Secretion IC50/EC50” value in the assay on STC-1 cell line was 2.9301 µM.
The corresponding values for `CCCCCCCCCCCCOCCOCCOCCOCCOCCOCCOCCOCCOCCO` [NCGC00166290-03] are over 40 µM and 30.3683 µM.
The matching figures for `CCN(CC)CCOC(=O)C(Cc1cccc2ccccc12)CC1CCCO1` (stereo not shown) [NCGC00178213-05]: over 40 µM and over 40 µM.
For the compound `NC[C@@H]1O[C@H](O[C@H]2[C@@H](O)[C@H](O[C@@H]3[C@@H](O)[C@H](N)C[C@H](N)[C@H]3O[C@H]3O[C@H](CN)[C@@H](O)[C@H](O)[C@H]3N)O[C@@H]2CO)[C@H](N)[C@@H](O)[C@@H]1O` [NCGC00179612-03], the “IC50/EC50, hNCI-H716 GLP1 Secretion (assay number 12)” value with NCI-H716 cells was over 40 µM. Besides, the “IC50/EC50, mSTC-1 GLP1 Secretion (assay number 13)” value in the assay with STC-1 cell line is over 40 µM.
In the case of `C#C[C@]1(O)CC[C@H]2[C@@H]3CCC4=CCCC[C@@H]4[C@H]3CC[C@@]21C` [NCGC00179676-03], the “hNCI-H716 GLP1 Secretion IC50/EC50” value in the assay on NCI-H716 cells turned out to be 27.5211 µM. For the same compound, the “mSTC-1 GLP1 Secretion IC50/EC50” value in the assay on STC-1 cell line is over 40 µM.
The corresponding values for `O=C(O)c1cc(N=Nc2ccc([O-])c(C(=O)O)c2)ccc1[O-].[Na+].[Na+]` [NCGC00181008-02] are over 40 µM and 9.5352 µM.
The matching figures for `CCCOC(C(=O)OC1CCN(C)CC1)(c1ccccc1)c1ccccc1.Cl` [NCGC00181103-02]: over 40 µM and 23.8177 µM.
For `O=C(Nc1cccc2c(=O)cc(-c3nn[nH]n3)oc12)c1ccc(OCCCCc2ccccc2)cc1` [NCGC00181765-01], the “hNCI-H716 GLP1 Secretion IC50/EC50” value in the assay on NCI-H716 cells is recorded as over 40 µM. For the same compound, in the assay with STC-1 cell line, the “mSTC-1 GLP1 Secretion IC50/EC50” value was over 40 µM.
Regarding `Cc1nnc2n1-c1sc(CCc3ccc(CC(C)C)cc3)cc1C(c1ccccc1Cl)=NC2C` (stereo not shown) [NCGC00183008-01], the “hNCI-H716 GLP1 Secretion IC50/EC50” value in the assay with NCI-H716 cells was 24.6779 µM. Also, in the assay with STC-1 cell line, the “mSTC-1 GLP1 Secretion IC50/EC50” value is over 40 µM.
The corresponding values for `Cc1c(C)c2c(c(C)c1OC(=O)CCC(=O)OCCO)CC[C@@](C)(CCC[C@H](C)CCC[C@H](C)CCCC(C)C)O2` [NCGC00183103-01] are over 40 µM and over 40 µM.
For `COc1cc(Nc2c(C#N)cnc3cc(OCCCN4CCN(C)CC4)c(OC)cc23)c(Cl)cc1Cl` [NCGC00241107-02], the “hNCI-H716 GLP1 Secretion IC50/EC50” value in the assay with NCI-H716 cells is listed as 25.1177 µM. For the same compound, the “mSTC-1 GLP1 Secretion IC50/EC50” value with STC-1 cell line was over 40 µM.
For `Nc1ccc(Cl)cc1C(=O)c1ccccc1F` [NCGC00253725-01], in the assay with NCI-H716 cells, the “hNCI-H716 GLP1 Secretion IC50/EC50” value is over 40 µM. In addition, in the assay with STC-1 cell line, the “mSTC-1 GLP1 Secretion IC50/EC50” value was over 40 µM.
In the case of `COc1cc(NCc2ccc3nc(N)nc(N)c3c2C)cc(OC)c1OC` [trimetrexate, reference compound], the pIC50 is 7.23 in the assay with SW480 (SW480, 72 h, read-out: SW480 viab. IC50); 7.23 in the assay on SW480 (SW480, read-out: Basal_Viability ATP SW480); under 4.70 on hGSK3b; under 4.70 at hFLT3; under 4.70 at hp70S6K1 (RPS6KB1); 7.64 in the assay with HCT116 (HCT-116, 72 h, read-out: HCT-116 viab. IC50). Moreover, the pIC50 in the assay with HCT116 (HCT-116, read-out: Basal_Viability ATP HCT116) is 7.64; in [1] (read-out: Anti-Angio IC50), 5.36; in assay [1] (read-out: Anti-Angiogenesis), 5.35; in the assay with RKO (72 h, read-out: RKO viab. IC50) it was 8.52; in the assay on RKO (read-out: Basal_Viability ATP RKO) it was 8.57; with HT-29 (HT-29, 72 h, read-out: HT-29 viab. IC50) it was 7.68. Moreover, the pIC50 with HT-29 (HT-29, read-out: Basal_Viability ATP HT-29) was 7.67; in the assay with Colo320 (COLO 320, 72 h, read-out: Colo320 viab. IC50) it was 6.41; in the assay on Colo320 (COLO 320, read-out: Basal_Viability ATP Colo 320), 6.41; with DLD-1 (DLD-1, 72 h, read-out: DLD-1 viab. IC50), 6.70; in the assay on DLD-1 (DLD-1, read-out: Basal_Viability ATP DLD-1), 6.71; on hKDR, under 4.70. Also, the pIC50 in [2] (HCT-116, 72 h, read-out: HCT-116 (GSK3β) viab. IC50) was 8.40; in assay [2] (HCT-116, read-out: GSK3b inh pretreated_Viability ATP HCT116) it was 8.41; with SNU-C1 (SNU-C1, 72 h, read-out: SNU-C1 viab. IC50), 5.29; in the assay on SNU-C1 (SNU-C1, read-out: Basal_Viability ATP SNU-C1), 5.29; on hJAK2, under 4.70. Besides, the pEC50 was under 5.00 with NCI-H716 cells (Homo sapiens, NCI-H716, read-out: GLP1 sec. EC50); under 5.00 with INS-1E cells; under 5.00 with HeLa cells; 8.48 in assay [3] (C2C12, read-out: Wnt Pathway); 8.52 in [3] (C2C12, read-out: Wnt pot. EC50).
